Measured values taken from patent publication US20140107219A1, “LOCAL ANAESTHETIC” (VITA (EUROPE) LIMITED, priority 2011, published 2014).
“And” between values parts separate entries of the source, which are not always exact repeats. Identical values can stand only once. Like-named read-outs stand apart in the source and are kept apart here.

Experiments:
[1] = molecular target: T1, hNav1.6 sodium channels (SCN8A gene, expressed in CHO cells) (Homo sapiens, UniProt Q9UQD0); test: Automated patch clamp (PatchXpress 7000A), cloned hNav1.6 in CHO cells, tonic and phasic; format: cell-based; details: for inhibition at 730 µg/mL / inhibition at 1460 µg/mL / inhibition at 2190 µg/mL / inhibition at 2920 µg/mL: CHO
T1 construct: expressed in transfected cells; host or cells: CHO cells
T1 sequence (Q9UQD0 whole entry): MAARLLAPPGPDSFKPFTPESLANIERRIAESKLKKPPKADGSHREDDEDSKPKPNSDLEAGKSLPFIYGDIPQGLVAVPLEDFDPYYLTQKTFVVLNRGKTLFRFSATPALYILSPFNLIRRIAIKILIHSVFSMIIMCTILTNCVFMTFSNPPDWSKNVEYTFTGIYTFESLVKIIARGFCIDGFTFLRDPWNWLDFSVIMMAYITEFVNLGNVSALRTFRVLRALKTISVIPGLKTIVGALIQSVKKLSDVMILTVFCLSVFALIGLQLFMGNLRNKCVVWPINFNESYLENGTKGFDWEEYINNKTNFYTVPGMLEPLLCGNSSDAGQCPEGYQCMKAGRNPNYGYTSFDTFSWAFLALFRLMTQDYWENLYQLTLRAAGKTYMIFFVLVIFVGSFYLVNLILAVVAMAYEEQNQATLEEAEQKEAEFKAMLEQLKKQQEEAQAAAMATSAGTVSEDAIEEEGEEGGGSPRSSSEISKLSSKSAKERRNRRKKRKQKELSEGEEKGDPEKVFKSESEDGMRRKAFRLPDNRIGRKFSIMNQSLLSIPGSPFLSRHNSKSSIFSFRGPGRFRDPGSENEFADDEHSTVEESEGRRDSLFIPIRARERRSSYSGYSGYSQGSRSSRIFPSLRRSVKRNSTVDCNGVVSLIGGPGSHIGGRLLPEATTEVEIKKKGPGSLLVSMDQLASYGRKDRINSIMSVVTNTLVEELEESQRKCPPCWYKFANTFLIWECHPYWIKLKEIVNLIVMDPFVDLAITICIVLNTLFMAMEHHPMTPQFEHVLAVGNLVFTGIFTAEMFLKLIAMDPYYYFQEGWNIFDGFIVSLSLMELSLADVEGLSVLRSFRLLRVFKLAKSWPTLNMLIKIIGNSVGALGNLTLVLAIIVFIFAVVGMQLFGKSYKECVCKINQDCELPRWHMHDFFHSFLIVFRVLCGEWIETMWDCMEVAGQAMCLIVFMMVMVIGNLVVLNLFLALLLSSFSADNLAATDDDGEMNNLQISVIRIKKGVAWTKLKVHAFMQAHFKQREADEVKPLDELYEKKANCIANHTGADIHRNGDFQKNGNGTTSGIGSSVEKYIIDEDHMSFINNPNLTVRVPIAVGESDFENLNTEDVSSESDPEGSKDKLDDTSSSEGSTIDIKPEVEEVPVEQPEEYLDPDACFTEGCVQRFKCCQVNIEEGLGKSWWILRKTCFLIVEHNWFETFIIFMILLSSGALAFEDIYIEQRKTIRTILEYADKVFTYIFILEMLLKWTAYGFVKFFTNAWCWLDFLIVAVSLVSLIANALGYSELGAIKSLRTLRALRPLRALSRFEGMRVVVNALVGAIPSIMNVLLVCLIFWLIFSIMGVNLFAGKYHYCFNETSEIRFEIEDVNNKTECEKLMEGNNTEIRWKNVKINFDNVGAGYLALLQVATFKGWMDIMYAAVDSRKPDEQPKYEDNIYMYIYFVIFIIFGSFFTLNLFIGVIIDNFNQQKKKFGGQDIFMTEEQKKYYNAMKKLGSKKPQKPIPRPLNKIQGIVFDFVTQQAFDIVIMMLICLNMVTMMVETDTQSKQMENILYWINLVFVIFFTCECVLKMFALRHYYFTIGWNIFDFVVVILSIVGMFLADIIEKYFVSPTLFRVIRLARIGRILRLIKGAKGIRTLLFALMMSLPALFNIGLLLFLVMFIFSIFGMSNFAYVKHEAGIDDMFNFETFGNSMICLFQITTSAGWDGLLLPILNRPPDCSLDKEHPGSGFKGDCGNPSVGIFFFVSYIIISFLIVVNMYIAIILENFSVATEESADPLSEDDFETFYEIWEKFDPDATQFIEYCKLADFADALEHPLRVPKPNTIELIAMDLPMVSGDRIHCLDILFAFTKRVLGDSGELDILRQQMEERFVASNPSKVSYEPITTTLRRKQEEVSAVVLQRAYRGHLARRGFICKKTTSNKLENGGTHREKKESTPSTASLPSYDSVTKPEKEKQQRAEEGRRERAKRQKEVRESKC
Method: In this example, the in vitro effects of 2-heptanone on the following ion channels were evaluated at room temperature using the PatchXpress 7000A (Molecular Devices), an automatic parallel patch clamp system:
(§1) 1. Cloned hNav1.2 sodium channels (SCN2A gene, expressed in CHO cells). 2. Cloned hNav1.6 sodium channels (SCN8A gene, expressed in CHO cells).
The effects of 2-heptanone were evaluated at 0.73, 1.46, 2.19, and 2.92 mg/ml with each concentration tested in two cells (n=2). The duration of exposure to each concentration of 2-heptanone was 5 minutes. Tables 2 to 5 show the individual results from each concentration followed by individual concentration-response curves. The positive controls (Table 6) confirm the sensitivity of the test systems to inhibition.
. Br. J. Pharmacol. 164, 719-730). […]

[2] = Acute LD50; format: in vivo; details: from acute LD50
[3] = test system: isolated sciatic nerve of the rat; test: Evoked compound action potential (CAP) of the isolated rat sciatic nerve in a three-chamber bath (ex vivo): inhibition and recovery after washout; details: for IT0: 15 mM (1.7 mg/mL)
[4] = molecular target: T2, hNav1.2 sodium channels (SCN2A gene, expressed in CHO cells) (Homo sapiens, UniProt Q99250); test: Automated patch clamp (PatchXpress 7000A), cloned hNav1.2 in CHO cells, tonic and phasic; format: cell-based; details: for inhibition at 730 µg/mL / inhibition at 1460 µg/mL / inhibition at 2190 µg/mL / inhibition at 2920 µg/mL: CHO
T2 construct: expressed in transfected cells; host or cells: CHO cells
T2 sequence (Q99250 whole entry): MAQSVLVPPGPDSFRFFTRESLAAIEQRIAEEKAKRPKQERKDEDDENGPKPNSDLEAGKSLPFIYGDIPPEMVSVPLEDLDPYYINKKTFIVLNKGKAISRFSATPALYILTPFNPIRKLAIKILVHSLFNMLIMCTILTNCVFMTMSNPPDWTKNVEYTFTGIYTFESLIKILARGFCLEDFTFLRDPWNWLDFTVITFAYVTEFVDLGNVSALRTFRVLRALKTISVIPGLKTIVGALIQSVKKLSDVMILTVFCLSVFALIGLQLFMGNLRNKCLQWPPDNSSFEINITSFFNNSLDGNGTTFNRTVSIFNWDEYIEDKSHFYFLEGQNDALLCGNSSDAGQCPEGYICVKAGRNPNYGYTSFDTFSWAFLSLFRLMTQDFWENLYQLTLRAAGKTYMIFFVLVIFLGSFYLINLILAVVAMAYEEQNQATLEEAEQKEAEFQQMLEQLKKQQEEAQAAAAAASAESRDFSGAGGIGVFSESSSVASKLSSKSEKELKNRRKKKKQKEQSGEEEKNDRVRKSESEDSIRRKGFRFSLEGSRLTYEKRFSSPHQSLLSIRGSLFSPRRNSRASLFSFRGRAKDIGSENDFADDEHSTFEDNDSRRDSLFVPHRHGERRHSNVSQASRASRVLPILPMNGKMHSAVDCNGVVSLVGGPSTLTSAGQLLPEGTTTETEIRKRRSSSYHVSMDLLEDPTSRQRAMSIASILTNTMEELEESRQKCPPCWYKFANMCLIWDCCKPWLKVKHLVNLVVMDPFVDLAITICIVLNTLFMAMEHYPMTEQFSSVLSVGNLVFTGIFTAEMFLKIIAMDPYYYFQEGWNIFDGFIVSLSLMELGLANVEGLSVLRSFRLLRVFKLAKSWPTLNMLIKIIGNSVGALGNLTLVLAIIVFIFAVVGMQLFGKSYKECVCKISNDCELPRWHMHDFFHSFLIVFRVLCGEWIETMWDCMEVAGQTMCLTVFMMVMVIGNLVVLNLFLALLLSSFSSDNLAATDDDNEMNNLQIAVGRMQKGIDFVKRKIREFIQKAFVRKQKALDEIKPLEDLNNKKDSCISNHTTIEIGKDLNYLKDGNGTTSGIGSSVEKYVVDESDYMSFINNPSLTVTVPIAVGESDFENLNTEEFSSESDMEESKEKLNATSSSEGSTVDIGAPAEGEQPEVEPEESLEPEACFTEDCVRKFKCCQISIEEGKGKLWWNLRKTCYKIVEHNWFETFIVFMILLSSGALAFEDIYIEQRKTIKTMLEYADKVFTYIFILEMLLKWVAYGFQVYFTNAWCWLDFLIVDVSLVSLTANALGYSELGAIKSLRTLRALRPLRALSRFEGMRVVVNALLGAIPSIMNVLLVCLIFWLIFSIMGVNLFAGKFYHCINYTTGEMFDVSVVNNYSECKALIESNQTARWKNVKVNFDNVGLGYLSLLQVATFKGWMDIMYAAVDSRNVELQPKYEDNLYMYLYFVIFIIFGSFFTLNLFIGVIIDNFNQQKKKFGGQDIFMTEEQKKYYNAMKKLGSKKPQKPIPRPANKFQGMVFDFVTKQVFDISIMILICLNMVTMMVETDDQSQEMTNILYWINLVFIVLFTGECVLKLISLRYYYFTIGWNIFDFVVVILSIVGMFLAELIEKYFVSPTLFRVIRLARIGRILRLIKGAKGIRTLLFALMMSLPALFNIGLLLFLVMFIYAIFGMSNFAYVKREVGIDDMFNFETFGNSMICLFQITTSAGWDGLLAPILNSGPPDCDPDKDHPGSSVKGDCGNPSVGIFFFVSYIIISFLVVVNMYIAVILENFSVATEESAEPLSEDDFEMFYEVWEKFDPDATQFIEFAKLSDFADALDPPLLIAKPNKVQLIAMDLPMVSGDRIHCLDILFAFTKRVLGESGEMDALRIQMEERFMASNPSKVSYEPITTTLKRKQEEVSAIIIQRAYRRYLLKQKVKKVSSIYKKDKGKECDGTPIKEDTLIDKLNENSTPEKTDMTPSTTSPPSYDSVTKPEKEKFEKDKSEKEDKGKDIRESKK
Source text: as §1

[5] = test system: biceps muscle; test: In vivo muscle CAP (mCAP, EMG integral) after intramuscular injection, biceps muscle; details: 7.2 mg/kg intramuscular
[6] = test system: peripheral nervous system of the rat; details: in-vivo; cited from earlier work
[7] = in vivo; cited from earlier work
[8] = test system: gastrocnemius muscle; test: In vivo muscle CAP (mCAP, EMG integral) after intramuscular injection, gastrocnemius muscle; parameters: species or system rat

In the case of `CCCCCC(C)=O` [2-heptanone], the “times less active than lidocaine, hNav1.6 phasic” value [1] is reported as 11.7 times, the “times less active than lidocaine, hNav1.6 tonic” value [1] is reported as 4.6 times and the “Individual Data Points (% Inhibition), Nav1.6 phasic” value ([1]; 0.73 mg/ml, single cells) is reported as 81.1%. The “Individual Data Points (% Inhibition), Nav1.6 tonic” value ([1]; 0.73 mg/ml, single cells) was 52.6%, the “Individual Data Points (% Inhibition), Nav1.6 phasic” value ([1]; 1.46 mg/ml, single cells) was 99.9% and the “Individual Data Points (% Inhibition), Nav1.6 tonic” value ([1]; 1.46 mg/ml, single cells) was 70.4%. For the same molecule, the “Individual Data Points (% Inhibition), Nav1.6 phasic” value ([1]; 2.19 mg/ml, single cells) was 101.0%, the “Individual Data Points (% Inhibition), Nav1.6 tonic” value ([1]; 2.19 mg/ml, single cells) was 100.1% and the “Individual Data Points (% Inhibition), Nav1.6 phasic” value ([1]; 2.92 mg/ml, single cells) was 100.7%. For the same molecule, the “Individual Data Points (% Inhibition), Nav1.6 tonic” value ([1]; 2.92 mg/ml, single cells) was 99.9%, the inhibition at 730 µg/mL ([1]; 0.73 mg/ml, single cells, read-out: Individual Data Points (% Inhibition), Nav1.6 phasic) was 94% and the inhibition at 730 µg/mL ([1]; 0.73 mg/ml, single cells, read-out: Individual Data Points (% Inhibition), Nav1.6 tonic) was 40.9%. It also gave an inhibition at 730 µg/mL ([1]; 0.73 mg/ml, read-out: Mean % Inhibition, Nav1.6 phasic) of 87.6%, an inhibition at 730 µg/mL ([1]; 0.73 mg/ml, read-out: Mean % Nav1.6 Tonic Inhibition) of 46.8% and an inhibition at 1460 µg/mL ([1]; 1.46 mg/ml, single cells, read-out: Individual Data Points (% Inhibition), Nav1.6 phasic) of 102%. It also gave an inhibition at 1460 µg/mL ([1]; 1.46 mg/ml, single cells, read-out: Individual Data Points (% Inhibition), Nav1.6 tonic) of 70.8%, an inhibition at 1460 µg/mL ([1]; 1.46 mg/ml, read-out: Mean % Inhibition, Nav1.6 phasic) of 101% and an inhibition at 1460 µg/mL ([1]; 1.46 mg/ml, read-out: Mean % Nav1.6 Tonic Inhibition) of 70.6%. It also gave an inhibition at 2190 µg/mL ([1]; 2.19 mg/ml, single cells, read-out: Individual Data Points (% Inhibition), Nav1.6 phasic) of 102%, an inhibition at 2190 µg/mL ([1]; 2.19 mg/ml, single cells, read-out: Individual Data Points (% Inhibition), Nav1.6 tonic) of 96.5% and an inhibition at 2190 µg/mL ([1]; 2.19 mg/ml, read-out: Mean % Inhibition, Nav1.6 phasic) of 101%. For the same molecule, the inhibition at 2190 µg/mL ([1]; 2.19 mg/ml, read-out: Mean % Nav1.6 Tonic Inhibition) was 98.3%, the inhibition at 2920 µg/mL ([1]; 2.92 mg/ml, single cells, read-out: Individual Data Points (% Inhibition), Nav1.6 phasic) was 101% and the inhibition at 2920 µg/mL ([1]; 2.92 mg/ml, single cells, read-out: Individual Data Points (% Inhibition), Nav1.6 tonic) was 96.1%. For the same molecule, the inhibition at 2920 µg/mL ([1]; 2.92 mg/ml, read-out: Mean % Inhibition, Nav1.6 phasic) was 101%, the inhibition at 2920 µg/mL ([1]; 2.92 mg/ml, read-out: Mean % Nav1.6 Tonic Inhibition) was 98% and the IC50 ([1]; Example 7, n=2, read-out: Nav1.6 phasic IC50) was < 6.39 mM. For the same molecule, the IC50 ([1]; Example 7, n=2, read-out: Nav1.6 tonic IC50 (converted)) was 7.06 mM and 7.07 mM, the “hNav1.6 IC50, phasic” value ([1]; Example 18, mean ± SEM) was 820 ± 30 µg/mL and the IC50 ([1]; Example 18, mean ± SEM, read-out: hNav1.6 IC50, tonic (converted)) was 11.7 mM. The “Hill coefficient, Nav1.6 phasic” value ([1]; FIG. 41, mean±SE) was 1.10±0.06, the “Hill coefficient, Nav1.6 tonic” value ([1]; FIG. 41, mean±SE) was 1.35±0.12 and the “times less toxic than lidocaine” value [2] was 5.6 times. For the same molecule, the “IT100 / IT0” value ([3]; 1.41 mg/mL) was 517.5 ± 25.62 s, the “IT100 / IT0” value ([3]; 1.41 mg/mL, listed as 2-Heptanone) was 517.5 ± 25.62 s and the “IT100 / IT0” value ([3]; 2.28 mg/mL (20 mM)) was 358.8 ± 18.07 s. For the same molecule, the “IT100 / IT0” value ([3]; 2.28 mg/mL (20 mM), listed as 2-Heptanone) was 358.8 ± 18.07 s, the “IT50 (time to inhibit CAP amplitude to 50% of control)” value ([3]; 10 mg/mL) was 22.3 ± 1.1 s and the “CAP decreased to (% of control)” value ([3]; 10 mg/mL, within 70 seconds of treatment) was 24%. The “IT50 (time to inhibit CAP amplitude to 50% of control)” value ([3]; 10 mg/mL, listed as 2-Heptanone) was 22.3 ± 1.1 s, the IT0 ([3]; stagnant saline, n=5) was 5 to 9 min and the IT0 ([3]; stirred saline, individual nerves) was 5 min and 10 min. For the same molecule, the “recovery of the CAP after washout, % of control” value ([3]; after 1.41 mg/mL) was “above 87.5%”, the “IC50 (concentration required to inhibit the CAP to 50% of control)” value ([3]; estimated from time-response curves, GraphPad Prism 5) was 469 ± 2 µg/mL and the “neurotoxic effect on nerve fibres” value ([3]; ex vivo, within the limits of 24 h) was “no neurotoxic effect”. The “fold slower than lidocaine” value ([3]; whole nerve preparation) was 1.54 fold, the “times less active than lidocaine, hNav1.2 phasic” value [4] was 12.8 times and the “times less active than lidocaine, hNav1.2 tonic” value [4] was 7 times. For the same molecule, the “Individual Data Points (% Inhibition), Nav1.2 phasic” value ([4]; 0.73 mg/ml, single cells) was 44.6%, the “Individual Data Points (% Inhibition), Nav1.2 tonic” value ([4]; 0.73 mg/ml, single cells) was 27. % and the “Individual Data Points (% Inhibition), Nav1.2 phasic” value ([4]; 1.46 mg/ml, single cells) was 64.7%. For the same molecule, the “Individual Data Points (% Inhibition), Nav1.2 tonic” value ([4]; 1.46 mg/ml, single cells) was 45.8%, the “Individual Data Points (% Inhibition), Nav1.2 phasic” value ([4]; 2.19 mg/ml, single cells) was 92.4% and the “Individual Data Points (% Inhibition), Nav1.2 tonic” value ([4]; 2.19 mg/ml, single cells) was 73. %. The “Individual Data Points (% Inhibition), Nav1.2 phasic” value ([4]; 2.92 mg/ml, single cells) was 99.8%, the “Individual Data Points (% Inhibition), Nav1.2 tonic” value ([4]; 2.92 mg/ml, single cells) was 89. % and the inhibition at 730 µg/mL ([4]; 0.73 mg/ml, single cells, read-out: Individual Data Points (% Inhibition), Nav1.2 phasic) was 44.3%. It also gave an inhibition at 730 µg/mL ([4]; 0.73 mg/ml, single cells, read-out: Individual Data Points (% Inhibition), Nav1.2 tonic) of 31.5%, an inhibition at 730 µg/mL ([4]; 0.73 mg/ml, read-out: Mean % Nav1.2 Phasic Inhibition) of 44.4% and an inhibition at 730 µg/mL ([4]; 0.73 mg/ml, read-out: Mean % Nav1.2 Tonic Inhibition) of 29.7%. For the same molecule, the inhibition at 1460 µg/mL ([4]; 1.46 mg/ml, single cells, read-out: Individual Data Points (% Inhibition), Nav1.2 phasic) was 67.9%, the inhibition at 1460 µg/mL ([4]; 1.46 mg/ml, single cells, read-out: Individual Data Points (% Inhibition), Nav1.2 tonic) was 49.3% and the inhibition at 1460 µg/mL ([4]; 1.46 mg/ml, read-out: Mean % Nav1.2 Phasic Inhibition) was 66.3%. The inhibition at 1460 µg/mL ([4]; 1.46 mg/ml, read-out: Mean % Nav1.2 Tonic Inhibition) was 47.6%, the inhibition at 2190 µg/mL ([4]; 2.19 mg/ml, single cells, read-out: Individual Data Points (% Inhibition), Nav1.2 phasic) was 87.6% and the inhibition at 2190 µg/mL ([4]; 2.19 mg/ml, single cells, read-out: Individual Data Points (% Inhibition), Nav1.2 tonic) was 56.7%. The inhibition at 2190 µg/mL ([4]; 2.19 mg/ml, read-out: Mean % Nav1.2 Phasic Inhibition) was 90%, the inhibition at 2190 µg/mL ([4]; 2.19 mg/ml, read-out: Mean % Nav1.2 Tonic Inhibition) was 65.1% and the inhibition at 2920 µg/mL ([4]; 2.92 mg/ml, single cells, read-out: Individual Data Points (% Inhibition), Nav1.2 phasic) was 98.2%. For the same molecule, the inhibition at 2920 µg/mL ([4]; 2.92 mg/ml, single cells, read-out: Individual Data Points (% Inhibition), Nav1.2 tonic) was 78.7%, the inhibition at 2920 µg/mL ([4]; 2.92 mg/ml, read-out: Mean % Nav1.2 Phasic Inhibition) was 99% and the inhibition at 2920 µg/mL ([4]; 2.92 mg/ml, read-out: Mean % Nav1.2 Tonic Inhibition) was 83.9%. For the same molecule, the IC50 ([4]; Example 7, n=2, read-out: Nav1.2 phasic IC50 (converted)) was 7.57 mM and 7.58 mM, the IC50 ([4]; Example 7, n=2, read-out: Nav1.2 tonic IC50 (converted)) was 12.1 mM and the IC50 ([4]; Example 18, mean ± SEM, read-out: hNav1.2 IC50, phasic (converted)) was 11.2 mM. The IC50 ([4]; Example 18, mean ± SEM, read-out: hNav1.2 IC50, tonic (converted)) was 16.6 mM, the “Hill coefficient, Nav1.2 phasic” value ([4]; FIG. 41, mean±SE) was 1.24±0.17 and the “Hill coefficient, Nav1.2 tonic” value ([4]; FIG. 41, mean±SE) was 1.44±0.02. For the same molecule, the “IT50 of mCAPs” value [5] was 9.13 ± 0.73 s and 9.13 s, the “neurotoxic effects on the peripheral nervous system” value [6] was “no neurotoxic effects” and the “acute LD50” value [7] was 1760 mg/kg. For the same molecule, the “recovery of mCAP after 3 h” value ([8]; 7.2 mg/kg intramuscular) was 65.4±7.78% and 61%, the “IT50 of the integral of mCAPs” value ([8]; 7.2 mg/kg intramuscular, in Tween 80 + 0.9% NaCl) was 25.78 s and the “IT50 of the integral of mCAPs” value ([8]; 10.8 mg/kg intramuscular) was 11.16 s. The “recovery of mCAP, % of initial values after 3 h” value ([8]; 10.8 mg/kg intramuscular) was “no recovery” and the “times more effective than lidocaine” value ([8]; similar IT50 at 7.2 mg/kg vs 10.8 mg/kg lidocaine) was 1.5 times.
